In patent US20080318778A1, “Agriculture Composition Method Comprising Nitric Oxide Generating Agent” (University of Sheffield, priority 2004, published 2008):

Columns and labels:
bean cv. Orfeo INIA = experiment: Weekly spraying of field-grown bean plants, effect on yield (pods/plant, seed/plant); type: in vivo, Phaseolus vulgaris; settings: sprayed every week for two months until pod setting, NaNO2 at 200 μM, AsA at 100 μM, mixture AsA/NaNO2 at 100 μM/200 μM, control sprayed with water
Description: Plants of bean cv Orfeo INIA were grown in rows 80 cm apart and at a density of 10 plants/m, during the 2001 Southern Spring in the Experimental Station of the Univ. of Chile, Santiago. Plants were irrigated twice a week with abundant water in order to avoid water stress at any developmental stage. Phytosanitary, weed and fertilizer conditions of the plant was controlled as recommended for commercial crop.
One month old plants were sprayed every week for a two month period, until pod setting with: NaNO2 at 200 μM; AsA at 100 μM and a mixture of AsA/NaNO2 at […]. Control plants were sprayed with water.

grapevine cv Sultana = experiment: Spraying of dormant grapevine cuttings, onset of bud burst in growth chamber; type: in vivo, Vitis vinifera L; settings: H2CN2 2.5% spray
Description: Cuttings of grapevine cv Sultana with three dormant buds each were collected from a vineyard located at Antumapu Experimental Station, University of Chile, by the end of May 2003 (Autumn South Hemisphere). After fungicide treatment, they were kept wrapped up with plastic for one week in a dark and cold chamber at 7° C. day/night. […] The number of buds burst was registered every day after the first bud was detected starting to growth. This moment was considered as the initiation of the bud burst.

| Structure (SMILES) | yield (Number of pods/plant and Number of seed/plant) (bean cv. Orfeo INIA) | strength of effect on bud burst, AsA/NaNO2 compared with cyanamide (grapevine cv Sultana) |
| --- | --- | --- |
| O=C1O[C@H]([C@@H](O)CO)C(O)=C1O [AsA, ascorbic acid] | neither AsA or NaNO2 alone had any effect on yield | – |
| O=NO [NaNO2, sodium nitrite] | neither AsA or NaNO2 alone had any effect on yield | – |
| N#CN [cyanamide] | – | The effect was not as strong as with cyanamide |
